From patent publication US7109160B1, “Peptides containing the motif IGD and their use as cell migration modulators” (University of Dundee, priority 1997, dated 2006) come the findings set out here.

Test [1] deals with human skin fibroblasts (SK319 and FSF44). Description: Native collagen gel migration assay. Type of test: cell-based. How it is done: Assays were performed as described in Materials and Methods in Example 1. Results are normalised by expressing them as “relative stimulation” of migration, this being calculated by dividing the percentage of cells in the gel matrix for each experimental point by the control value obtained in that particular experiment. Data are presented as the mean ±SD of five experiments. For clarity, the shaded area indicates the spread of standard deviations for data points not plotted with error bars. Upper panel: results obtained with the indicated synthetic peptides. Lower panel: results obtained with native fibronectin (FN), and its cell-binding (Cell-BD) and gelatin-binding (Gel-BD) domains.
(§1) Cells. Experiments were performed with two lines of human skin fibroblasts (SK319 and FSF44, between passage 10–18) shown to be free of mycoplasmal contamination by staining with Hoechst 33256. Identical results were obtained with both lines and these cells are consequently not individually identified in the Figures. Stock cultures were maintained in Eagle's Minimal Essential (MEM), as previously described^7.
(§2) Migration Assays. In the collagen gel assay, pre-formed 2 ml gels were overlaid with 1 ml of serum-free MEM (controls) or serum-free MEM containing the requisite concentration of effector molecule to give the desired final concentration. Trypsinised fibroblasts were suspended in serum-free MEM to give an inoculum containing 2×10^5 cells/ml and 1 ml of this was plated onto replicate control and test gels.

Test [2] has the same test system. Description: Transmembrane migration assay (membranes coated with native type I collagen or gelatin). Type of test: cell-based. To be noted: FIG. 2. How it is done: Assays were performed as described in Materials and Methods in Example 1. Results from five experiments are presented as mean ±SD. Shaded area indicates the spread of standard deviations for data points not plotted with error bars. Panel A: results obtained with IGDS (SEQ ID NO 2) and the gelatin-binding domain (Gel-BD) on membranes coated with native collagen and gelatin. Panel B: results obtained with RGDS (SEQ ID NO 6), native fibronectin (FN), and its cell-binding domain (Cell-BD).
as §1
Polycarbonate membranes used in the transmembrane assay were immersed in an aqueous solution containing 10 μg/ml of either native type I collagen or heat-denatured type I collagen (gelatin) overnight at 37° C. and then air-dried. Assays were performed as previously described^7.

For a further test, the system named is chick yolk sac membrane. In words: Chick yolk sac membrane angiogenesis assay. Type of test: in vivo. To be noted: for Positive responses (%) / Positive responses (positive/total): assessed after 24 hr. From the text:
Dried methylcellulose pellets containing the test samples and control pellets (lacking the test samples) were placed on the yolk sac membrane of 6-day chick embryos, as described in Materials and Methods in Example 1. The elicited reaction was checked after six hours and assessed after 24 hr by observation of living embryos with a stereomicroscope. […] After assessment at 24 hr, selected membranes were fixed in 2.5% EM grade glutaraldehyde in 0.2 M phosphate buffer, pH 7.4. These preparations were then stained with 1% toluidine blue and photographed using a Leica DM LB microscope. […] Bar=250 μm.
Chick yolk sac membrane angiogenesis assay. The assay was performed essentially as described by Gush et al (1990) J. Med. Engineer. Tech. 14, 205–209. Accordingly, four-day-old fertilised eggs were cracked in a tumbler, covered with a Petri dish and incubated at 37° C. Two days later dried methylcellulose pellets containing the test samples and control pellets (lacking the test samples) were placed on the yolk sac membrane. The elicited angiogenic reaction was assessed after 24 hr by observation of living embryos with a stereomicroscope. Selected membranes were fixed in 2.5% EM grade glutaraldehyde in 0.2 M phosphate buffer (pH 7.4), dissected, stained with 1% toluidine blue and mounted on glass slides for photomicroscopy.

Another test relates to rat wound healing model. Description: Rat wound healing model (subcutaneous porcine dermal collagen film implants). Type of test: in vivo. To be noted: 1 μg/ml in collagen film, implanted subcutaneously, 28 days, p < 0.01. From the text:
In this experimental system, 1 cm^2 pieces of porcine dermal collagen films impregnated with either control medium or medium containing the indicated concentration of test substance were implanted subcutaneously into rats. The animals were sacrificed 28 days later and the removed collagen implants fixed and sectioned for image analysis.

The test system of test [3] is human skin fibroblasts (SK319 and FSF44). In words: Collagen gel assay with combinations of peptides (co-incubation). Type of test: cell-based. The settings on record: FIG. 3A. How it is done:
The collagen gel assay was performed in the presence of various combinations of the indicated peptides and the percentage of cells present within the gel matrix measured after a four-day incubation period. Data are expressed as mean ±SD obtained in three experiments. Panel A: combinations of the gelatin-binding domain (Gel-BD) and IGDS (SEQ ID NO 2); Panel B: combinations of IGDS (SEQ ID NO 2) and RGDS (SEQ ID NO 6); Panel C: combinations of IGDS (SEQ ID NO 2) and the cell-binding domain (Cell-BD).
as §2
The possible mechanistic relationship between IGDS (SEQ ID NO 2) and the gelatin-binding domain in which it is contained was further examined by co-incubating cells with suboptimal concentrations of each.
Possible mechanistic interactions between IGDS (SEQ ID NO 2) and RGDS (SEQ ID NO 6) were studied in similar co-incubation experiments.

The test system is the same in test [4]. In words: Pre-incubation of cells with IGDS, subsequent migration in native collagen gel assay. The test is classed as cell-based. The procedure:
Confluent cells on plastic tissue culture dishes were washed 3× with serum-free MEM (SF-MEM) and then incubated for various times with the indicated concentrations of IGDS (SEQ ID NO 2) in SF-MEM. They were then trypsinised and washed extensively by repeated (5×) cycles of centrifugation and resuspension in SF-MEM. The behaviour of these pre-incubated cells was assessed in the collagen gel assay in the absence of further IGDS (SEQ ID NO 2)(indicated as IGDS (SEQ ID NO 2) not in assay). […] Data were obtained from three experiments and are expressed as mean ±SD.
as §2

“Also recorded” adds a separate entry of the source.

For “Ile-Gly-Asp-Ser (IGDS; listed as Homo sapiens)”, the “concentration at which significant bioactivity (migration stimulation) is first manifest” value in test [1] (collagen gel assay, FIG. 1A) is 0.1 µM. The shape of dose-response entry in test [1] (collagen gel assay, FIG. 1A) is given as “bell-shaped dose-response”. The “effect on cell migration into native type I collagen gels” value in test [1] (human dermal fibroblasts, 4-day incubation, FIG. 1) is recorded as “stimulated cell migration”. For the same substance, the “effect on cell migration through gelatin-coated membranes” value in test [2] (gelatin (heat-denatured type I collagen)-coated membranes) was “devoid of activity”. The “effect on cell migration through membranes coated with native collagen” value in test [2] (native type I collagen-coated membranes) is “stimulated cell migration”. Further, the “Positive responses (%)” value in the test with chick yolk sac membrane (5 ng/pellet) is on record as “(50) %”; in the test on chick yolk sac membrane (50 ng/pellet) it was “(64) %”; in the test on chick yolk sac membrane (250 ng/pellet), “(77) %”; in the test with chick yolk sac membrane (1000 ng/pellet), “(64) %”; with chick yolk sac membrane (3000 ng/pellet), “(78) %”. In addition, the “Positive responses (positive/total)” value is 3/6 with chick yolk sac membrane (5 ng/pellet); 7/11 with chick yolk sac membrane (50 ng/pellet); 10/13 with chick yolk sac membrane (250 ng/pellet); 9/14 with chick yolk sac membrane (1000 ng/pellet); 7/9 in the test with chick yolk sac membrane (3000 ng/pellet). Besides, the “angiogenic response in the chick yolk sac membrane, in words” value in the test on chick yolk sac membrane (in vivo) is given as “elicited an angiogenic response; also recorded: stimulates angiogenesis”. In the test on chick yolk sac membrane (pellet containing 1.0 μg, 6-day chick embryos, 24 hr, FIG. 7), the “angiogenic response elicited by pellet” value is listed as “positive angiogenic response”. The “Fibroblasts (% field)” value in the test with rat wound healing model (control 8.3 ± 6.7) was determined as 18.2 ± 9.4 % field. For the same substance, in the test on rat wound healing model (control 15.3 ± 5.5), the “Vessels (per field)” value worked out at 26.7 ± 6.4 per field. In addition, the “activity on cell migration when present on its own” value in test [3] (0.01 μM (10^7 fM)) is “inactive”. Moreover, the “effect upon cell migration of co-incubation with the gelatin-binding domain” value in test [3] (suboptimal concentrations of each) is on record as “additive effect”. The “persistence of effect on cell migration after pre-incubation” value in test [4] (assayed in absence of further IGDS, dependent on pre-incubation time and peptide concentration, FIG. 4) is listed as “persistent”. Besides, in test [4] (pre-incubated cells, data not shown), the “elevated migratory behaviour still manifest following passages in vitro” value is on record as 1–2 passages.
